{
  "source": "patent US20190151289A1",
  "about": "“Identification of Small Molecule Inhibitors of Jumonji AT-Rich Interactive Domain 1A (JARID1A) Histone Demethylase” (YALE UNIVERSITY, priority 2016, published 2019)",
  "type_in_all_cases": "cell-based, human",
  "key": {"[1]": {"tested_on": "H3K4 methylation in HeLa cells", "assay": "Western blot of global H3K4 methylation, HeLa", "experimental": "(§1) Sf21 insect cells were cultured at 27° C. in Grace's medium (Gibco) with 10% fetal bovine serum (FBS) and 1% penicillin/streptomycin. HeLa cells were cultured in DMEM (Gibco) with 10% FBS and 1% penicillin/streptomycin. BT474, MCF7, MDA-MB-231, PC9 and ZR-75-1 cells were cultured in RPMI 1640 (Gibco) with 10% FBS and 1% penicillin/streptomycin. MCF10A cells were cultured as using previously described methods (Sayegh et al., 2013, J. Biol. Chem. 9408-9417). All human cells were cultured at 37° C. and 5% carbon dioxide. HeLa and MCF7 cell lines were authenticated using short tandem repeat profiling performed at the DNA Analysis Facility on Science Hill at Yale University. All other human cell lines used were within 10 passages after being obtained from the American Type Culture Collection.\nCells were lysed using previously described methods (Lin et al., 2011, Proc. Natl. Acad. Sci. U.S.A. 108:13379-13386). Histones were separated by centrifugation, resuspended in Laemmeli buffer, and sonicated. Protein concentration of cell lysates was measured by Bradford assay. Samples in Laemmeli buffer were boiled 10 minutes at 95° C. and loaded onto 7% (whole cell lysates) or 18% (histones) SDS-PAGE gels. Membranes were blocked in 4% non-fat milk in Tris-buffered saline with 0.05% Tween (TBS-T) and incubated with primary antibodies in the same buffer or 5% bovine serum albumin in TBS-T overnight at 4° C. Membranes were incubated with secondary anti-rabbit or anti-mouse antibodies for one hour at room temperature. Blots were visualized by Thermo Scientific Pierce ECL Western Blotting Substrate (32106) or EMD Millipore Immobilon Western Chemiluminescent HRP Substrate (WBKLS0100) on film. Signal was quantified using ImageJ software."}, "[2]": {"tested_on": "H3K4 methylation in ZR-75-1 cells", "assay": "Western blot of global H3K4 methylation, ZR-75-1", "conditions": "ZR-75-1, 48 hour treatment", "experimental": "as §1\n(§2) Cells were lysed using previously described methods (Lin et al., 2011, Proc. Natl. Acad. Sci. U.S.A. 108:13379-13386). Histones were separated by centrifugation, resuspended in Laemmeli buffer, and sonicated. Protein concentration of cell lysates was measured by Bradford assay. Samples in Laemmeli buffer were boiled 10 minutes at 95° C. and loaded onto 7% (whole cell lysates) or 18% (histones) SDS-PAGE gels. […] Signal was quantified using ImageJ software."}, "[3]": {"tested_on": "H3K4 methylation in MDA-MB-231 cells", "assay": "Western blot of global H3K4 methylation, MDA-MB-231", "conditions": "MDA-MB-231, 72 hr treatment", "experimental": "as §1, §2"}, "[4]": {"tested_on": "H3K4 methylation in MCF10A cells", "assay": "Western blot of global H3K4 methylation, MCF10A", "conditions": "72 hr treatment", "experimental": "as §1, §2"}, "HeLa cells": {"tested_on": "HeLa cells", "assay": "Colony formation assay, HeLa", "experimental": "(§3) Cells were seeded in 6-well plates at low density: HeLa, MCF7, BT474, and PC9 cells at 1000, 2000, 2500, and 2000 cells/well respectively. Media containing the prescribed drugs or 0.1% DMSO was replaced every 3 days. Trastuzumab was used at 5 μg/ml. Gefitinib was used at 2 μM. YUKA1 was used at 50 or 100 μM. Doxycycline was used at 1 μg/ml for 3 days. After 7-42 days depending on the rate of cell growth, cells were fixed in 4% para-formaldehyde in phosphate-buffered saline for 10 minutes rocking at room temperature. They were incubated in 0.05% crystal violet in double-distilled water for 30 minutes rocking at room temperature, washed with water, and dried 24 hours before photographing. ColonyArea, a plugin for ImageJ software, was used for quantification (Guzman et al., 2014, PloS One 9:e92444). Unpaired, two-tailed student's t-test was used to determine significance using GraphPad Prism 6.0 software.\nHeLa (FIG. 11A) and MDA-MB231 cells (FIG. 11B) were treated with DMSO, 5 μM KDMS-C70 or 50 or 100 μM YUKA1 in colony-formation assays. The tables in FIGS. 11C and 11D depict the quantification of experimental data."}, "PC9 cells": {"tested_on": "PC9 cells", "assay": "Colony formation assay, PC9 (gefitinib tolerance)", "experimental": "as §3"}},
  "data": [
    {"compound": "C=CCOc1c(CNn2cnnc2S)cccc1OC", "note": "[YUKA1, 4-([2-(allyloxy)-3-methoxybenzyl]amino)-4H-1,2,4-triazole-3-thiol]", "values": [
      {"measurement": "H3K4me2 and H3K4me1 levels", "setting": "[1]; HeLa", "value": "increased"},
      {"measurement": "cell activity by global H3K4 methylation changes", "setting": "[1]; HeLa and MCF7 cell lines, western blot", "value": "cell-active"},
      {"measurement": "global H3K4me3 levels", "setting": "[1]; HeLa, 48 hour treatment", "value": "dose-dependent increase"},
      {"measurement": "global H3K4me3 levels", "setting": "[2]", "value": "increased global H3K4me3 levels"},
      {"measurement": "H3K4 methylation", "setting": "[3]", "value": "only minor changes"},
      {"measurement": "H3K4 methylation levels", "setting": "[4]", "value": "did not affect H3K4 methylation levels"},
      {"measurement": "growth in colony-formation assay", "setting": "HeLa cells; 5 μM KDMS-C70 or 50 or 100 μM YUKA1", "value": "suppresses growth"},
      {"measurement": "number of colonies formed vs DMSO control", "setting": "HeLa cells; two-week treatment", "value": "significantly reduced"},
      {"measurement": "cell growth, compound alone", "setting": "PC9 cells; PC9, compound alone", "value": "not significantly affected"},
      {"measurement": "colony formation under gefitinib vs DMSO control", "setting": "PC9 cells; PC9, long-term treatment with 2 μM gefitinib plus compound", "value": "fewer YUKA1-treated cells formed colonies"}
    ]}
  ]
}
